Data: PMC7313537 (PLoS ONE, 2020)
Read-outs that look alike come from different tables or passages of the source.

How the values were obtained:
AKT1 = AKT1 (Homo sapiens, UniProt P31749); experiment: Enzyme selectivity panel; type: biochemical; details: 1 mM ATP
Description: (§3) The kinase assays were carried out at room temperature in HEPES 50 mM, pH 7.0, NaN3 0.02%, BSA 0.01%, Orthovanadate 0.1 mM, DTT 1 mM, MgCl2 10 mM in a final volume of 10 µL. Test compounds were transferred to the plate wells by ECHO liquid handler (Labcyte, San Jose, CA) with 0.5% dimethyl sulfoxide (DMSO) in the final assay. Peptide/kinase mixtures were diluted in the appropriate enzymatic buffer and 5µL of the mixture was added to a 384-well small volume black plate. Reactions were initiated by the addition of 5 µL ATP in reaction buffer, the final reaction mixture consisted of 500 nM peptide substrate, 1 mM ATP, and appropriate amount of specific kinase. […] The plates were then sealed and centrifuged at 1800 rpm for 2 minutes. […] Half maximal inhibitory concentration (IC50) determination was performed by fitting the curve of percent control activity versus the log of the compound concentration using the GraphPad Prism 6.0 software.

AXL = molecular target: T1, AXL (Homo sapiens, UniProt P30530); experiment: Enzyme selectivity panel; type: biochemical; details: 1 mM ATP
T1 construct: purchased In-house HTRF panel (56 kinases) and PerkinElmer (161-kinase panel)
Description: as §3

CHEK2 = CHEK2 (Homo sapiens, UniProt O96017); experiment: Enzyme selectivity panel; type: biochemical; details: 1 mM ATP
Description: as §3

HIPK3 = HIPK3 (Homo sapiens, UniProt Q9H422); experiment: Enzyme selectivity panel; type: biochemical; details: 1 mM ATP
Description: as §3

IKKA = IKKA (Homo sapiens, UniProt O15111); experiment: Enzyme selectivity panel; type: biochemical; details: 1 mM ATP
Description: as §3

MINK = MINK (Homo sapiens, UniProt Q8N4C8); experiment: Enzyme selectivity panel; type: biochemical; details: 1 mM ATP
Description: as §3

MSSK1 = MSSK1 (Homo sapiens, UniProt Q9UPE1); experiment: Enzyme selectivity panel; type: biochemical; details: 1 mM ATP
Description: as §3

PIM1 = molecular target: T2, PIM1 (Homo sapiens, UniProt P11309); experiment: Enzyme selectivity panel; type: biochemical; details: 1 mM ATP
T2 construct: purchased In-house HTRF panel (56 kinases) and PerkinElmer (161-kinase panel)
Description: as §3

RPS6KB1 = RPS6KB1 (Homo sapiens, UniProt P23443); experiment: Enzyme selectivity panel; type: biochemical; details: 1 mM ATP
Description: as §3

SGK3 = SGK3 (Homo sapiens, UniProt Q96BR1); experiment: Enzyme selectivity panel; type: biochemical; details: 1 mM ATP
Description: as §3

SRC = molecular target: T3, SRC (Homo sapiens, UniProt P12931); experiment: Enzyme selectivity panel; type: biochemical; details: 1 mM ATP
T3 construct: purchased In-house HTRF panel (56 kinases) and PerkinElmer (161-kinase panel)
Description: as §3

ZAP70 = ZAP70 (Homo sapiens, UniProt P43403); experiment: Enzyme selectivity panel; type: biochemical; details: 1 mM ATP
Description: as §3

KG1a (AML) = experiment: Cell viability assay (CellTiter-Glo); type: cell-based; details: Homo sapiens, KG-1a; FGFR1OP2-FGFR1 fusion; 72 hours; read-out: Mean GI50 ± S.D.
KMS-11 (myeloma) = experiment: Cell viability assay (CellTiter-Glo); type: cell-based; details: Homo sapiens, IgH-FGFR3 translocation, 72 hours, read-out: Mean GI50 ± S.D.
HCC-422 = experiment: Cell viability assay (CellTiter-Glo); type: cell-based; details: Lung cancer; lacking FGFR alterations
J82 = experiment: Cell viability assay (CellTiter-Glo); type: cell-based; details: Homo sapiens, Bladder, lacking FGFR alterations
hERG potassium current = molecular target: T4, hERG potassium current (Homo sapiens, UniProt Q12809); experiment: hERG potassium current (ChanTest); type: cell-based; details: estimated; precise IC50 not calculated due to compound insolubility; data provided by ChanTest; read-out: IC50 for the inhibitory effect on hERG potassium current
T4 construct: ChanTest Corporation, Cleveland, OH

Pharmacokinetic analyses [1] = type: in vivo, Sprague Dawley rats; details: male rat
Description: (§1) The i.v. formulation in rats was 5% dimethylacetamide (DMAC) and 25% sulfobutyl ether β-cyclodextrin in acidified saline (pH 3). The i.v. formulation in dogs and monkeys was 5% DMAC and 20% sulfobutyl ether β-cyclodextrin in saline. The oral formulation in all species was 5% DMAC in 0.5% methylcellulose aqueous solution. For rats, blood samples were collected at predose, 5 (i.v. dosing only), 15, and 30 minutes, and 1, 2, 4, 6, 8, and 24 hours. For dogs, blood samples were collected at predose, 2.5 and 5 (i.v. dosing only), 15, and 30 minutes, and 1, 2, 3, 4, 6, 8, 12, and 24 hours postdose. For monkeys, blood samples were collected at predose, 5 and 10 (i.v. dosing only), 15, and 30 minutes, and 1, 2, 3, 4, 6, 8, 12, 16, and 24 hours postdose. Collected blood samples were processed to extract plasma by centrifugation and stored at −20 °C until analysis.
(§2) The plasma was protein precipitated and the diluted supernatant was analyzed using LC/MS/MS. A standard curve was prepared in plasma from 1 to 5,000 nM and processed in the same manner as the samples. The pharmacokinetic parameters were determined using WinNonLin 6.3.

Pharmacokinetic analyses [2] = type: in vivo, cynomolgus monkeys; details: male monkey
Description: as §1, with “The” for “The i.v. formulation in rats was 5% dimethylacetamide (DMAC) and 25% sulfobutyl ether β-cyclodextrin in acidified saline (pH 3). The”
as §2

[3] = system: serum inorganic phosphate; experiment: Serum phosphate pharmacodynamic study; type: in vivo, C57BL/6 mice; details: single oral dose
Description: Female C57BL/6 mice, 5–8 weeks of age, were obtained from Charles River Laboratories. […] Twenty-four hours after dosing, mice were anesthetized under isoflurane. Approximately 200 μL of whole blood was collected by capillary retro-orbital sinus sampling into lithium heparin collection tubes (RAM Scientific, Yonkers, NY). Blood was maintained at 4°C and transported for analysis to DuPont Haskell Global Centers for Health and Environmental Science (Newark, DE). Each sample was analyzed for levels of inorganic phosphate within 4 hours of receipt. Serum clinical chemistry parameters were determined using an Olympus® AU640 clinical chemistry analyzer (Beckman Coulter, Brea, CA). Both phosphate and calcium are manufacturer-supplied reagents and methods.

[4] = system: myeloid/lymphoid neoplasm expressing CEP110-FGFR1; parameters: method as in PMID 29767670; details: single patient, CEP110-FGFR1 fusion ref 40; cited from earlier work
[5] = Sprague Dawley, plasma, oral 2 mg/kg
[6] = intravenous 1 mg/kg, % of hepatic blood flow

Chain of IKKA (O15111 whole entry, species assumed): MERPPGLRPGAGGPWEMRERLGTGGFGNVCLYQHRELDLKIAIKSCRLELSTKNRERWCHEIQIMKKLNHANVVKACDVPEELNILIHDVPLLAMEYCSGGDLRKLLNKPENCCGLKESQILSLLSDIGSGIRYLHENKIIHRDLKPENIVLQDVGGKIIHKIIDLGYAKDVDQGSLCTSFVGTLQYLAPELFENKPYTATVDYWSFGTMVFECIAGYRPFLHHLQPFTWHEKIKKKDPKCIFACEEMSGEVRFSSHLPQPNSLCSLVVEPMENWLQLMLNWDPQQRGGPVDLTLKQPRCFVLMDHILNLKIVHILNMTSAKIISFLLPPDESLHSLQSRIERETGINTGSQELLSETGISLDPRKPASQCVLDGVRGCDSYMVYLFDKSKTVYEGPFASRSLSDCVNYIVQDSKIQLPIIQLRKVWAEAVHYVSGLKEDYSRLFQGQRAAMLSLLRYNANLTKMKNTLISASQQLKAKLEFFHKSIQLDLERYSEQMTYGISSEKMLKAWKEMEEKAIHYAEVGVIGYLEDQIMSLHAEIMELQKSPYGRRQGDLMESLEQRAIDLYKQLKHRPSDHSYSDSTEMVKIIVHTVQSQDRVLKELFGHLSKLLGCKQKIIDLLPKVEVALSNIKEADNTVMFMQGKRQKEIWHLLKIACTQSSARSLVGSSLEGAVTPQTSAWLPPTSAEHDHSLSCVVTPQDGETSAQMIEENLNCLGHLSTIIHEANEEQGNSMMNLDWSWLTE
Chain of AKT1 (P31749 whole entry, species assumed): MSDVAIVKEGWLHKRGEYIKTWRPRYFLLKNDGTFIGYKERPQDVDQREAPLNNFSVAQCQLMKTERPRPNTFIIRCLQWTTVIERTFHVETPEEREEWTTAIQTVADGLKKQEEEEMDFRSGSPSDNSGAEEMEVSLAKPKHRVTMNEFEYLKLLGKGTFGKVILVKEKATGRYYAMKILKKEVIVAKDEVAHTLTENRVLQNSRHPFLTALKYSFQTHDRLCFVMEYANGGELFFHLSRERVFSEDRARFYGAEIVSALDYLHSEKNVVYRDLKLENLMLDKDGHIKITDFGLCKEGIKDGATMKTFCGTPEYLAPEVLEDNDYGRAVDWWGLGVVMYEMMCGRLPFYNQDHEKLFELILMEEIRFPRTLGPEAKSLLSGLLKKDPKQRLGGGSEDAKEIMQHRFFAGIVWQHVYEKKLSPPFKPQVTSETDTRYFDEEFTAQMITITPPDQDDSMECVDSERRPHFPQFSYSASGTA
Chain of SGK3 (Q96BR1 whole entry, species assumed): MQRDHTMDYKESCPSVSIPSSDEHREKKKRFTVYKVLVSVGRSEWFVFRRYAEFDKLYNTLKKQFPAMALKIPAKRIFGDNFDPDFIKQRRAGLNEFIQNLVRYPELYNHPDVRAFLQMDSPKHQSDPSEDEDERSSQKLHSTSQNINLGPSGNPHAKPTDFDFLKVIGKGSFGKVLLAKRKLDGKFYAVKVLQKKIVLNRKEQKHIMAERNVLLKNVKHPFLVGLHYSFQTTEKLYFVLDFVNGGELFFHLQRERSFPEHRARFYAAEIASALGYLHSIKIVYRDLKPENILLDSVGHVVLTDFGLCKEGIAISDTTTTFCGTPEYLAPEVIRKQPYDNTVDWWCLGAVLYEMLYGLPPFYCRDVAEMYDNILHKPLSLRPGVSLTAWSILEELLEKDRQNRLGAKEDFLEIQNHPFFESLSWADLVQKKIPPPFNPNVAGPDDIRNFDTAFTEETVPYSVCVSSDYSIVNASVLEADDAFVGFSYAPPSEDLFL
T4 sequence (Q12809 whole entry): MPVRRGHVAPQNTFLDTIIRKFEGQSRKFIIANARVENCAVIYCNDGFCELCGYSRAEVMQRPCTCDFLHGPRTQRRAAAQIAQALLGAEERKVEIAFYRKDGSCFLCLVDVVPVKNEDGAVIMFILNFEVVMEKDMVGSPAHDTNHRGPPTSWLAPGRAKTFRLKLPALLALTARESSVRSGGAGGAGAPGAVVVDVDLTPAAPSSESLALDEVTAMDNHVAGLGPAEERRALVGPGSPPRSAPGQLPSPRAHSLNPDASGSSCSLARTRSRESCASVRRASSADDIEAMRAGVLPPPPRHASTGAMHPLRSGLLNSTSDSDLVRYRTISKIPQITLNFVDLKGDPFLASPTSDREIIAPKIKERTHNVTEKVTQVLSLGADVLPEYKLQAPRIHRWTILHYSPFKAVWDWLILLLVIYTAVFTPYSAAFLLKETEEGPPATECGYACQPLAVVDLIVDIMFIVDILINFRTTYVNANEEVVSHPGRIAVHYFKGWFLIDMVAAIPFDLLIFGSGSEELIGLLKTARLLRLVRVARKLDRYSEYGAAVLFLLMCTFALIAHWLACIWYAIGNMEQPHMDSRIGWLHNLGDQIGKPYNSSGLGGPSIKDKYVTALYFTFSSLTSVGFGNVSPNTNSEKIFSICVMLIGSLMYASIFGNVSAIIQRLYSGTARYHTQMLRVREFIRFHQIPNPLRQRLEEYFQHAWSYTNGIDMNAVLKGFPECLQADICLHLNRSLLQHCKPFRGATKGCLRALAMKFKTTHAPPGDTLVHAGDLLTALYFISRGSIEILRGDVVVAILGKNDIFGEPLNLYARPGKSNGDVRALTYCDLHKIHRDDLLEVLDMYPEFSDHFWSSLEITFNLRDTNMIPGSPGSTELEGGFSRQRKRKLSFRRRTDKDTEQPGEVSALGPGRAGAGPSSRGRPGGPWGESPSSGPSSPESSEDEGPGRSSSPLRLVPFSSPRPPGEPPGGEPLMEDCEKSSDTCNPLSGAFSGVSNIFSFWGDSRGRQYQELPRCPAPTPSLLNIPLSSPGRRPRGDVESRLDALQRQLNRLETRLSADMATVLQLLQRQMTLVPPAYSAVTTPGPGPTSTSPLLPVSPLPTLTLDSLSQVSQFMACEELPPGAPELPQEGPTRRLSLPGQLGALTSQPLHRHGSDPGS
Chain of MSSK1 (Q9UPE1 whole entry, species assumed): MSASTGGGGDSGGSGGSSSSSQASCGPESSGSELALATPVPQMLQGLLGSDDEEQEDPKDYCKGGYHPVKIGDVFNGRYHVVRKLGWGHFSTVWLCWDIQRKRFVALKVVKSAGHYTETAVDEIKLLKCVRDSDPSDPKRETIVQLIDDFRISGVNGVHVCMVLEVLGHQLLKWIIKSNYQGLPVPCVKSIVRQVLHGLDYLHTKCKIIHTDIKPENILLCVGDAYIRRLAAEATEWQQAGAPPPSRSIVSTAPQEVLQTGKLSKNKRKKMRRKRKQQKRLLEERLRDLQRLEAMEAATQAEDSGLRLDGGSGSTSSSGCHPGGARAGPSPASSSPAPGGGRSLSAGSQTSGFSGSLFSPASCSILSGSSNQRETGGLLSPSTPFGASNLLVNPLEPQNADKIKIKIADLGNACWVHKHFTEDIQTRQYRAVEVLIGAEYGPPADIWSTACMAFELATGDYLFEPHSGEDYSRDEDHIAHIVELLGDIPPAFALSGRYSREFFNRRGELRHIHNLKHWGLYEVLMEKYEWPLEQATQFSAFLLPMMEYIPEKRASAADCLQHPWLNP
Chain of ZAP70 (P43403 whole entry, species assumed, the tested form may be a part): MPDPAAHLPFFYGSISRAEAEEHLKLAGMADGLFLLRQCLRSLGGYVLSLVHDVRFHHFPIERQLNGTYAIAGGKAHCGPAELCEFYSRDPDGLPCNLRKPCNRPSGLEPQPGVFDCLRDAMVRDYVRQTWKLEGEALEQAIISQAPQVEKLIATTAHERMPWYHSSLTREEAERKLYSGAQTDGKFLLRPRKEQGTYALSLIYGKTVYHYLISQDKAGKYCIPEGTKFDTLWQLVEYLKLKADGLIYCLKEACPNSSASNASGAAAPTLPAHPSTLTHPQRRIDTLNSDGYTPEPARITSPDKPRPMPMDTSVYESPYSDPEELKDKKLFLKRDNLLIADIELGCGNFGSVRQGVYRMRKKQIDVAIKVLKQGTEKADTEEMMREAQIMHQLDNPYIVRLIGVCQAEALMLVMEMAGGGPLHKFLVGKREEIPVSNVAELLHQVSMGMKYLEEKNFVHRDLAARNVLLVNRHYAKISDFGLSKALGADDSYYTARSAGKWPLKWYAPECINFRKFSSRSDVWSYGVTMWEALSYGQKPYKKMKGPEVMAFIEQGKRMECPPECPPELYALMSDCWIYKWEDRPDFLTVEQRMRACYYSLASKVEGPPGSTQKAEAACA
T2 sequence (P11309 whole entry, species assumed): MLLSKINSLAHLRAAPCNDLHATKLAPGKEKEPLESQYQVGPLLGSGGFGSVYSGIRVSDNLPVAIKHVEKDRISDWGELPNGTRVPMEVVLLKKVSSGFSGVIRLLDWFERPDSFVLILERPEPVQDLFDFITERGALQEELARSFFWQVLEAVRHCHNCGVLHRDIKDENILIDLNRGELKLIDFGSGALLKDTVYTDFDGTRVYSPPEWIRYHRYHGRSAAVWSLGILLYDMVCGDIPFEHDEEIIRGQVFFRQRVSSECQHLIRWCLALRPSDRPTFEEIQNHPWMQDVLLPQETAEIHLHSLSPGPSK
Chain of RPS6KB1 (P23443 whole entry, species assumed): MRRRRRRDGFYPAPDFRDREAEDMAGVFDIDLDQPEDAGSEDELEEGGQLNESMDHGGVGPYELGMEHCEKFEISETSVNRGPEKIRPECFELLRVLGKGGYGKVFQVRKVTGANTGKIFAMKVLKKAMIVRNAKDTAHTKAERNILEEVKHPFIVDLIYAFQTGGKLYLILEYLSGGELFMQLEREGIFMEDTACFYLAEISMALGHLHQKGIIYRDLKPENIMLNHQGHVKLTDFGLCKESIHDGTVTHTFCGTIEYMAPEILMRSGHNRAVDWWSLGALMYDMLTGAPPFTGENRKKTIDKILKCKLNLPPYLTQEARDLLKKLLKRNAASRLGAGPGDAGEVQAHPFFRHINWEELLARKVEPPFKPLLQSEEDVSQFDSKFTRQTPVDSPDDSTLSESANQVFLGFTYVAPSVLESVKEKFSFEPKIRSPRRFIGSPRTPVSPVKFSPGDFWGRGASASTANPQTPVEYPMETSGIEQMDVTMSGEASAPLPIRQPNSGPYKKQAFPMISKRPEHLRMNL

## CCN1C(=O)N(c2c(F)c(OC)cc(OC)c2F)Cc2cnc3[nH]c(CN4CCOCC4)cc3c21 [INCB054828, pemigatinib]
AKT1
  IC50: > 10 µM
AXL
  IC50: > 10 µM
CHEK2
  IC50: > 10 µM
HIPK3
  IC50: > 10 µM
IKKA
  IC50: > 10 µM
MINK
  IC50: > 10 µM
MSSK1
  IC50: > 10 µM
PIM1
  IC50: > 10 µM
RPS6KB1
  IC50: > 10 µM
SGK3
  IC50: > 10 µM
SRC
  IC50: > 10 µM
ZAP70
  IC50: > 10 µM
KG1a (AML)
  GI50: 0.003 ± 0.001 µM
KMS-11 (myeloma)
  GI50: 0.362 ± 0.282 µM
HCC-422
  GI50: > 5 µM
J82
  GI50: > 5 µM
hERG potassium current
  IC50: > 8 µM
Pharmacokinetic analyses [1]; Sprague Dawley, plasma, intravenous 1 mg/kg
  clearance: 17.2 mL/min/kg
Pharmacokinetic analyses [1]; Sprague Dawley, plasma, intravenous 1 mg/kg, read-out: Vss
  Vd: 1.85 L/kg
Pharmacokinetic analyses [1]; Sprague Dawley, plasma, intravenous 1 mg/kg, read-out: t½ (converted)
  half-life: 4 h
Pharmacokinetic analyses [1]; [5]
  Cmax: 2260 nM
  bioavailability: > 100%
Pharmacokinetic analyses [1]; [6]
  Hepatic ER: 31%
Pharmacokinetic analyses [1]; oral 2 mg/kg
  %F: complete
  AUC: 7.67 µM·h
Pharmacokinetic analyses [2]; cynomolgus monkey, plasma, intravenous 1 mg/kg
  clearance: 3.3 mL/min/kg
Pharmacokinetic analyses [2]; cynomolgus monkey, plasma, intravenous 1 mg/kg, read-out: Vss
  Vd: 0.584 L/kg
Pharmacokinetic analyses [2]; cynomolgus monkey, plasma, intravenous 1 mg/kg, read-out: t½ (converted)
  half-life: 10.3 h
Pharmacokinetic analyses [2]; cynomolgus monkey, plasma, oral 2 mg/kg
  bioavailability: 29%
Pharmacokinetic analyses [2]; [6]
  Hepatic ER: 8%
Pharmacokinetic analyses [2]; oral 2 mg/kg
  AUC: 6.19 µM·h
[3]; 2 independent experiments
  average half maximal effective dose for phosphate induction: 2.9 mg/kg
[3]; 24 hours after dosing
  serum phosphorus: dose-dependent increase
[4]
  clinical response: complete cytogenetic and hematologic remission
